Experimental data taken from patent US6875761B2 (Eisai Co., Ltd., priority 1997, dated 2005).
Counter-ions that a name gives are not always drawn.

How the values were obtained:
serotonin 1A receptor = biological target: T1, serotonin 1A receptor (Rattus norvegicus, UniProt P19327); assay: Binding test on [3H] 8-hydroxy-dipropylaminotetralin, hippocampus receptor fraction; set-up: species or system SD rats; conditions: rat hippocampus receptor fraction, 0.5 nM [3H] 8-OH-DPAT, room temperature 30 min; read-out: 5HT1
T1 construct: To the receptor fraction of the hippocampus were added a test compound and 0.5 nM of [^3H]; 8-hydroxy-dipropylaminotetralin; from tissue; host or cells: rat hippocampus membrane fraction
T1 sequence (P19327 1-422): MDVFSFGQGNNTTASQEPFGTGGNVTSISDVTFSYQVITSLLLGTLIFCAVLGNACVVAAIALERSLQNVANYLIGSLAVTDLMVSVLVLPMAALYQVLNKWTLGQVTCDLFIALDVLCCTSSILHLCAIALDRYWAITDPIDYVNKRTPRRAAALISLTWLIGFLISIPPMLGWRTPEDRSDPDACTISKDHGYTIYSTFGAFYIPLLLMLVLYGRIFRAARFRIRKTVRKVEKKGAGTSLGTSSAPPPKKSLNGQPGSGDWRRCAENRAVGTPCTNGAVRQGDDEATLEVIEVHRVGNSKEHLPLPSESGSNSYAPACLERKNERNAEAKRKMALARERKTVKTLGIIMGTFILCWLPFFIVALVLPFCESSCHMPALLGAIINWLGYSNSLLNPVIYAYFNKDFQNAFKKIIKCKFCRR

serotonin 2 receptor = biological target: T2, serotonin 2 receptor (Rattus norvegicus, UniProt P14842); assay: Binding test on [3H] ketanserin, cerebral cortex receptor fraction; set-up: species or system SD rats; conditions: 0.3 nM [3H] ketanserin, 37° C. 15 min, read-out: 5HT2
T2 construct: To the receptor fraction of the cerebral cortex were added a test compound and 0.3 nM of [^3H] ketanserin; from tissue; host or cells: rat cerebral cortex membrane fraction
T2 sequence (P14842 whole entry): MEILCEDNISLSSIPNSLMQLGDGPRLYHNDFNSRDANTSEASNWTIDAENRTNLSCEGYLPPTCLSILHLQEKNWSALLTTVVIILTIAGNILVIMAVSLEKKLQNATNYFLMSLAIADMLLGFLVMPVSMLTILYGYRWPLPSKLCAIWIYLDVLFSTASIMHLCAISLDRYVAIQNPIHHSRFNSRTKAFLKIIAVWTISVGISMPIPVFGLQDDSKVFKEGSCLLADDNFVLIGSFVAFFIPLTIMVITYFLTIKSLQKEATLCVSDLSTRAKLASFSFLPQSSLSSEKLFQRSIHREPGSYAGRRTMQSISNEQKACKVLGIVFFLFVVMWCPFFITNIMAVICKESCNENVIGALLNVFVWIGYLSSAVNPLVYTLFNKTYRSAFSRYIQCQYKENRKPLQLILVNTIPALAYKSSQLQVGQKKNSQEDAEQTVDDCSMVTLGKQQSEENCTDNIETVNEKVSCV

CCN1CCN(c2nc(-c3ccc(CCCOC(C)C)nc3)cc3ccccc23)CC1 [Example 143, 1-(1-Ethylpiperazin-4-yl)-3-[2-[3-(2-Propoxy)Propyl]Pyridin-5-yl]Isoquinoline Oxalate]
Ki (serotonin 1A receptor): 2.2 nM | Ki (serotonin 2 receptor): 17.4 nM

CCN1CCN(c2nc(-c3ccc(CCC(C)OC)nc3)cc3ccccc23)CC1 (stereo not drawn) [Example 144, 1-(1-Ethylpiperazin-4-yl)-3-[2-(3-Methoxybutyl)Pyridin-5-yl]Isoquinoline Oxalate]
Ki (serotonin 1A receptor): 4.8 nM | Ki (serotonin 2 receptor): 12.4 nM

CCC#Cc1ccc(-c2cc3ccccc3c(N3CCN(CC)CC3)n2)cn1 [Example 146, 1-(1-ethylpiperazin-4-yl)-3-[2-(1-butyn-1-yl)pyridin-5-yl]isoquinoline]
Ki (serotonin 1A receptor): 170 nM | Ki (serotonin 2 receptor): 2.9 nM

CCN1CCN(c2nc(-c3ccc(N4CCOCC4)nc3)cc3ccccc23)CC1 [Example 147, 1-(4-ethylpiperazin-1-yl)-3-[2-(morpholin-4-yl)pyridin-5-yl]isoquinoline trihydrochloride]
Ki (serotonin 1A receptor): 6.5 nM | Ki (serotonin 2 receptor): 1.7 nM

CCN1CCN(c2nc(-c3ccc(N4CCOCC4)cn3)cc3ccccc23)CC1 [Example 148, 1-(4-ethylpiperazin-1-yl)-3-[5-(morpholin-4-yl)pyridin-2-yl]isoquinoline trihydrochloride]
Ki (serotonin 1A receptor): 6.33 nM | Ki (serotonin 2 receptor): 7.85 nM

CCN1CCN(c2nc(-c3ccc(N4C[C@@H](C)O[C@@H](C)C4)nc3)cc3ccccc23)CC1 [Example 149, 3-[2-(2,6-dimethylmorpholin-4-yl)pyridin-5-yl]-1-(4-ethylpiperazin-1-yl)isoquinoline trihydrochloride]
Ki (serotonin 1A receptor): 37.2 nM | Ki (serotonin 2 receptor): 21.8 nM

CCN1CCN(c2nc(-c3ccc(N4CCSCC4)nc3)cc3ccccc23)CC1 [Example 150, 1-(4-ethylpiperazin-1-yl)-3-[2-(thiomorpholin-4-yl)pyridin-5-yl]isoquinoline trihydrochloride]
Ki (serotonin 1A receptor): 10.7 nM | Ki (serotonin 2 receptor): 0.8 nM

CCN1CCN(c2nc(-c3ccc(N4CC[S+]([O-])CC4)nc3)cc3ccccc23)CC1 [Example 151, 1-(4-ethylpiperazin-1-yl)-3-[2-(S-oxythiomorpholin-4-yl)pyridin-5-yl]isoquinoline trihydrochloride]
Ki (serotonin 1A receptor): 7 nM | Ki (serotonin 2 receptor): 79.2 nM

CCN1CCN(c2nc(-c3ccc(N4CCC(O)CC4)nc3)cc3ccccc23)CC1 [Example 152, 1-(4-ethylpiperazin-1-yl)-3-[2-(4-hydroxypiperidin-1-yl)pyridin-5-yl]isoquinoline trihydrochloride]
Ki (serotonin 1A receptor): 6.1 nM | Ki (serotonin 2 receptor): 12.4 nM

CCN1CCN(c2nc(-c3ccc(N4CCC(OC)CC4)nc3)cc3ccccc23)CC1 [Example 153, 1-(4-ethylpiperazin-1-yl)-3-[2-(4-methoxypiperidin-1-yl)pyridin-5-yl]isoquinoline trihydrochloride]
Ki (serotonin 1A receptor): 12.9 nM | Ki (serotonin 2 receptor): 1.5 nM

CCN1CCN(c2nc(-c3ccc(N4CCC(CO)CC4)nc3)cc3ccccc23)CC1 [Example 154, 1-(4-ethylpiperazin-1-yl)-3-[2-(4-hydroxymethylpiperidin-1-yl)pyridin-5-yl]isoquinoline trihydrochloride]
Ki (serotonin 1A receptor): 1.6 nM | Ki (serotonin 2 receptor): 8.8 nM

CCN1CCN(c2nc(-c3ccc(C4=CCOCC4)nc3)cc3ccccc23)CC1 [Example 155, 3-[2-(5,6-dihydro-2H-pyran-4-yl)pyridin-5-yl]-1-(4-ethylpiperazin-1-yl)isoquinoline oxalate]
Ki (serotonin 1A receptor): 20 nM | Ki (serotonin 2 receptor): 4.34 nM

CCN1CCN(c2nc(-c3ccc(C4CCOCC4)nc3)cc3ccccc23)CC1 [Example 156, 3-[2-(tetrahydropyran-4-yl)pyridin-5-yl]-1-(4-ethylpiperazin-1-yl)isoquinoline oxalate]
Ki (serotonin 1A receptor): 10.9 nM | Ki (serotonin 2 receptor): 0.01 nM

CCN1CCN(c2nc(-c3ccc(OCCCc4cccnc4)cc3)cc3ccccc23)CC1 [Example 157, 3-[4-[3-(3-pyridyl)propoxy]phenyl]-1-(4-ethylpiperazin-1-yl)isoquinoline hydrochloride]
Ki (serotonin 1A receptor): 29.7 nM | Ki (serotonin 2 receptor): 4.9 nM

CCN1CCN(c2nc(N3CCN(c4ccccc4)CC3)cc3ccccc23)CC1 [Example 158, 1-(1-ethylpiperazin-4-yl)-3-(1-phenylpiperazin-4-yl)isoquinoline]
Ki (serotonin 1A receptor): 0.41 nM | Ki (serotonin 2 receptor): 1.08 nM

CCN1CCN(c2nc(N3CCN(c4ccccn4)CC3)cc3ccccc23)CC1 [Example 159, 1-(1-ethylpiperazin-4-yl)-3-[1-(2-pyridyl)piperazin-4-yl]isoquinoline]
Ki (serotonin 1A receptor): 0.65 nM | Ki (serotonin 2 receptor): 13.2 nM

CCN1CCN(c2nc(-c3csc(CO)c3)cc3ccccc23)CC1 [Example 161, 1-(1-ethylpiperazin-4-yl)-3-(2-hydroxymethylthiophen-4-yl)isoquinoline dihydrochloride]
Ki (serotonin 1A receptor): 10.7 nM | Ki (serotonin 2 receptor): 23.8 nM

CCN1CCN(c2nc(-c3ccc(CO)s3)cc3ccccc23)CC1 [Example 162, 1-(1-ethylpiperazin-4-yl)-3-(2-hydroxymethylthiophen-5-yl)isoquinoline dihydrochloride]
Ki (serotonin 1A receptor): 10.7 nM | Ki (serotonin 2 receptor): 84.7 nM

CCN1CCN(c2nc(-c3ccc(CCO)s3)cc3ccccc23)CC1 [Example 163, 1-(1-ethylpiperazin-4-yl)-3-[2-(2-hydroxyethyl)thiophen-5-yl]isoquinoline dihydrochloride]
Ki (serotonin 1A receptor): 25.1 nM | Ki (serotonin 2 receptor): 19.2 nM

CCC(O)c1cc(-c2cc3ccccc3c(N3CCN(CC)CC3)n2)cs1 (stereo not drawn) [Example 164, 1-(1-ethylpiperazin-4-yl)-3-[2-(1-hydroxypropyl)thiophen-4-yl]isoquinoline hydrochloride]
Ki (serotonin 1A receptor): 9.38 nM | Ki (serotonin 2 receptor): 11.9 nM

CCC(O)c1ccc(-c2cc3ccccc3c(N3CCN(CC)CC3)n2)s1 (stereo not drawn) [Example 165, 1-(1-Ethylpiperazin-4-yl)-3-[2-(1-hydroxypropyl)thiophen-5-yl)isoquinoline hydrochloride]
Ki (serotonin 1A receptor): 32.6 nM | Ki (serotonin 2 receptor): 25.4 nM

CCC(O)c1ncc(-c2cc3ccccc3c(N3CCN(CC)CC3)n2)s1 (stereo not drawn) [Example 170, 1-(1-ethylpiperazin-4-yl)-3-[(1-hydroxypropyl)thiazol-5-yl]isoquinoline dihydrochloride]
Ki (serotonin 1A receptor): 3 nM | Ki (serotonin 2 receptor): 25.4 nM

CCN1CCN(c2nc(-c3cnc(CCCO)s3)cc3ccccc23)CC1 [Example 171, 1-(1-ethylpiperazin-4-yl)-3-[2-(3-hydroxypropyl)thiazol-5-yl]isoquinoline oxalate]
Ki (serotonin 1A receptor): 4.7 nM | Ki (serotonin 2 receptor): 21.9 nM

CCN1CCN(c2nc(-c3cnc(CCCOC)s3)cc3ccccc23)CC1 [Example 172, 1-(1-ethylpiperazin-4-yl)-3-[2-(3-methoxypropyl)thiazol-5-yl]isoquinoline oxalate]
Ki (serotonin 1A receptor): 4.7 nM | Ki (serotonin 2 receptor): 36.2 nM

CCCC(=O)Nc1ncc(-c2cc3ccccc3c(N3CCN(CC)CC3)n2)cn1 [Example 174, 3-(2-Propylcarbonylaminopyrimidin-5-Yl)-1-(4-Ethylpiperazin-1-Yl)Isoquinoline Hydrochlroide]
Ki (serotonin 1A receptor): 29.1 nM | Ki (serotonin 2 receptor): 7.3 nM

CCN1CCN(c2nc(-c3ccc(C4=CCOCC4)s3)cc3ccccc23)CC1 [Example 176, 3-[2-(5,6-Dihydro-2H-Pyran-4-Yl)Thiophen-5-Yl]-1-[4-Ethylpiperazin-1-Yl)Isoquinoline Hydrochloride]
Ki (serotonin 1A receptor): 155 nM | Ki (serotonin 2 receptor): 12.4 nM

CCN1CCN(c2nc(C#Cc3ccccc3)cc3ccccc23)CC1 [Example 177, 1-(1-Ethylpiperazin-4-Yl)-3-(Phenylethynyl)Isoquinoline Dihydrochloride]
Ki (serotonin 1A receptor): 45 nM | Ki (serotonin 2 receptor): 0.5 nM
